Experimental findings from patent US20220040219A1, “COMPOSITIONS AND METHODS FOR TREATING CYSTIC FIBROSIS” (SpliSense Ltd., priority 2019, published 2022) are described below.

The assay has as its target T1, CFTR del Ex23 (Homo sapiens, UniProt P13569, DEL1240-1291).
T1 construct: expressed in transfected cells; host or cells: HEK 293 cells, transient transfection with Lipofectamine 2000
As to the kind of experiment: FLIPR membrane potential assay of CFTR function in HEK 293 cells transiently transfected with CFTR del Ex23. Type of assay: cell-based. The conditions noted are these: forskolin 10 μM, addition of potentiator VX-770 (1 μM), FIG. 1B. Here is the method:
HEK cells were transiently transfected with a construct bearing a CFTR transcript having exon 23 completely deleted from it (CFTR del Ex23). Transfection was carried out using Lipofectamine 2000 transfection reagent (Invitrogen) according to the lipofectamine 2000 reagent protocol using the following lipofectamine amounts: 96 well—0.15 μl, 6 well—3 μl, […]—15 μl.
HEK cells transfected with the CFTR del Ex23 contruct were grown in 96-well (black, flat bottom; corning) plates. 48 hr post-transfection, CFTR channel function was analyzed using the FLIPR membrane potential assay as previously described (Molinski et al., 2015). Briefly, the cells were loaded with blue membrane potential dye (Molecular Devices), which can detect changes in transmembrane potential. The plate was then read in a fluorescence plate reader (BioTek Synergy H1) for baseline levels followed by CFTR stimulation using the cAMP agonist forskolin (10 μM; Sigma), DMSO vehicle was used as a negative control. CFTR-mediated depolarization of the plasma membrane was detected as an increase in fluorescence and hyperpolarization (or repolarization) as a decrease. […]
FLIPR™ (Fluorescence Imaging Plate Reader) is a functional system that allows measuring changes in membrane potential by a fluorescent indicator. […]

The structures appear in SMILES notation.

T1 sequence (P13569 with tags, fused parts or gaps DEL1240-1291): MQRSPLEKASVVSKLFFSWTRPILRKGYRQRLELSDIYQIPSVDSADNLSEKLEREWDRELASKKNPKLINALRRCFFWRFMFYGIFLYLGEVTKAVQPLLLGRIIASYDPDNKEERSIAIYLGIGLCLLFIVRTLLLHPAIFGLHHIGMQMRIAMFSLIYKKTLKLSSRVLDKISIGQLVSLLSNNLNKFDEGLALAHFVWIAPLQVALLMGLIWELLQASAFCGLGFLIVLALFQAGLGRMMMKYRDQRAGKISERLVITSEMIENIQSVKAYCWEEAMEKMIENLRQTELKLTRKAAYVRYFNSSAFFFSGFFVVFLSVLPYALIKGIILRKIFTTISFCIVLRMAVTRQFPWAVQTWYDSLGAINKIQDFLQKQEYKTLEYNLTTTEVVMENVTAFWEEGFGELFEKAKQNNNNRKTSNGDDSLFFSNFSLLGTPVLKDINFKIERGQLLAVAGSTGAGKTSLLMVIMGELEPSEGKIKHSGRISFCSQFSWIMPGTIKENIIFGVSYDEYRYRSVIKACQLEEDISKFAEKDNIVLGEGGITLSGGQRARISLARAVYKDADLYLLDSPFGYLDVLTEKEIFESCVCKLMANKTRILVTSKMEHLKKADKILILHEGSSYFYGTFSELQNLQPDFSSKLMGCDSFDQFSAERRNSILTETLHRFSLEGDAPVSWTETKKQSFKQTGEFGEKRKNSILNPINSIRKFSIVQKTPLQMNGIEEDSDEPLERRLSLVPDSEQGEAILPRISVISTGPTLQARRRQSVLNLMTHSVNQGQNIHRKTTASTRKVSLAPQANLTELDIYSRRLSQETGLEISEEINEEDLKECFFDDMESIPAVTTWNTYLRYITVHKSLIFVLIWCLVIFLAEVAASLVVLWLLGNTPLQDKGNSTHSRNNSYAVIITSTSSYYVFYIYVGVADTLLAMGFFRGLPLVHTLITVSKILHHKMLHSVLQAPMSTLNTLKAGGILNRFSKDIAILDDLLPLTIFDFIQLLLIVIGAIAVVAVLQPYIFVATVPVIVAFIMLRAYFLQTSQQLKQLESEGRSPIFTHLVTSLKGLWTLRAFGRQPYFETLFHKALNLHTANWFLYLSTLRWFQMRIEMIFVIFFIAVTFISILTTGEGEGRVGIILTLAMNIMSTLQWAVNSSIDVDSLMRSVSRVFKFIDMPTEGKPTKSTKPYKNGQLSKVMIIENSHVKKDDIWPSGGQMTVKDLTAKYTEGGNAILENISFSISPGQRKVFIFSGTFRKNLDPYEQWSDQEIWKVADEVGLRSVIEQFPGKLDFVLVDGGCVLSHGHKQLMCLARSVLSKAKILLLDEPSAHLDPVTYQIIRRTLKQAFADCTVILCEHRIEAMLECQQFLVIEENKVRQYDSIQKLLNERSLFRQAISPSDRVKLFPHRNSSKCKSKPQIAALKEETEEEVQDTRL

In the case of `CC(C)(C)c1cc(C(C)(C)C)c(NC(=O)c2c[nH]c3ccccc3c2=O)cc1O` [VX-770, N-(2,4-Di-tert-butyl-5-hydroxyphenyl)-4-oxo-1,4-dihydroquinoline-3-carboxamide], the channel activation is listed as 35 % of WT.
